{"source": "patent US6992070B2", "about": "(priority 2000, dated 2006)", "test_system": "ex vivo perfused rabbit heart (ventricular myocytes), Adgal adenovirus gene transfer", "type": "cell-based"}
{"smiles": "Nc1nc2c(nc(Br)n2[C@@H]2O[C@@H]3COP(=O)(O)O[C@H]3[C@H]2O)c(=O)[nH]1", "note": "[8-Br-cGMP]", "values": [{"measurement": "infection efficiency", "value": "replicates the increase in infection efficiency"}, {"measurement": "pretreatment (exposure) time required for the enhancement of infection", "value": 2, "unit": "min"}]}
{"smiles": "CCCc1nn(C)c2c(=O)[nH]c(-c3cc(S(=O)(=O)N4CCN(C)CC4)ccc3OCC)nc12", "note": "[Sildenafil, 5-[2-ethoxy-5-(4-methylpiperazin-1-ylsulphonyl)phenyl]-1-methyl-3-n-propyl-1,6-dihydro-7H-pyrazolo[4,3d]pyrimidin-7-one]", "values": [{"measurement": "percentage of infected cells", "value": "increased the percentage of infected cells"}, {"measurement": "percentage of infected cells in the absence of VEGF", "value": "No change"}]}
{"smiles": "O=[N+]([O-])OCC(CO[N+](=O)[O-])O[N+](=O)[O-]", "note": "[nitroglycerin]", "values": [{"measurement": "infection efficiency", "value": "replicates the increase in infection efficiency"}, {"measurement": "pretreatment (exposure) time required for the enhancement of infection", "value": 2, "unit": "min"}]}
{"smiles": "NCCc1c[nH]c2ccc(O)cc12", "note": "[serotonin]", "values": [{"measurement": "pretreatment (exposure) time required for the enhancement of infection", "value": 15, "unit": "min"}]}
{"smiles": "CCCOc1ccccc1-c1nc2nn[nH]c2c(=O)[nH]1", "note": "[zaprinast]", "values": [{"measurement": "percentage of infected cells", "value": "increased the percentage of infected cells"}, {"measurement": "percentage of infected cells in the absence of VEGF", "value": "No change"}]}
